From paper PMC3578011 (Journal of neurochemistry, 2013)
Entries after “also recorded” stand apart in the source; their conditions may differ.

Assays:
CB1 wild-type receptor = CB1 wild-type receptor (Homo sapiens, UniProt P21554); assay: [35S]GTPγS binding assay; format: biochemical
CB1 [1] = molecular target: T1, CB1 (Homo sapiens, UniProt P21554); conditions: for time of maximal ERK1/2 phosphorylation: 0.5 µM CP55,940 or 3.2 µM ICAM-b
[2] = Solubility in organic solvents; format: physicochemical; conditions: except tetrahydrofuran (THF)
CB1 [3] = molecular target: T1, CB1; assay: Radioligand binding assay, cooperativity with [3H]SR141716A; conditions: for effect on [3H]SR141716A binding: in the concentration range tested
CB1 [4] = molecular target: T1, CB1; assay: Radioligand binding assay, cooperativity with [3H]CP55,940; conditions: for cooperativity factor (α): from [3H]CP55,940 binding curves, membranes of HEK293 cells expressing CB1
CB1 [5] = molecular target: T1, CB1; format: binding; conditions: in the presence of ICAM-b

T1 sequence (P21554 whole entry): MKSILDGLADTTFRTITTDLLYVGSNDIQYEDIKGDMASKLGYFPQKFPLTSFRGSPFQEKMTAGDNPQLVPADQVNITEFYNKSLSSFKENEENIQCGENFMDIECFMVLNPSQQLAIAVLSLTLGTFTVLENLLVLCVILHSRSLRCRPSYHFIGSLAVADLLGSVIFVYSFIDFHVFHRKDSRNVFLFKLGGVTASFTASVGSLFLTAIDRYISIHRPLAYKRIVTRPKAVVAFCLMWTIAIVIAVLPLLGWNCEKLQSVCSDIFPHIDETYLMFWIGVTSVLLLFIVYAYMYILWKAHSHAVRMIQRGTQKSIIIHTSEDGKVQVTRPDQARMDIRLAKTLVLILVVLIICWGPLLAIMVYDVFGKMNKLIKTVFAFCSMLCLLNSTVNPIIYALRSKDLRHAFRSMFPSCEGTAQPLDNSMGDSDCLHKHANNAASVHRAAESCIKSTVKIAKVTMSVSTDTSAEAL
CB1 wild-type receptor, sequence (P21554 whole entry): as above

SMILES: CCCCCCC(C)(C)c1ccc([C@@H]2C[C@H](O)CC[C@H]2CCCO)c(O)c1 [CP55,940, (1R,3R,4R)-3-[2-hydroxy-4-(1,1-dimethylheptyl)-phenyl]-4-(3-hydroxypropyl)cyclohexan-1-ol, reference compound]
- Emax of CP55,940-induced [35S]GTPγS binding (CB1 wild-type receptor; in the absence of ICAM-b): 98.9 fmol/mg
- time of maximal ERK1/2 phosphorylation (CB1 [1]; HEK293 cells expressing CB1): 5 min

SMILES: CCc1c(C(=O)NCCc2ccc(N3CCCCC3)cc2)n(C)c2ccc(Cl)cc12 [ICAM-a, 5-chloro-3-ethyl-1-methyl-N-(4-(piperidin-1-yl)phenethyl)-1H-indole-2-carboxamide]
- solubility in common organic solvents [2]: poor
- effect on [3H]SR141716A binding (CB1 [3]): little effect; also recorded: no effect
- Kb (CB1 [4]): 5.78 µM
- cooperativity factor (α) (CB1 [4]): 11.9

SMILES: CCCCCc1c(C(=O)NCCc2ccc(N3CCCCC3)cc2)[nH]c2ccc(Cl)cc12 [ICAM-b, 5-chloro-3-pentyl-N-(4-(piperidin-1-yl)phenethyl)-1H-indole-2-carboxamide]
- solubility in common organic solvents [2]: poor
- Bmax changes for CP55,940 and SR141716A (CB1 [5]): Negligible
- cooperativity factor (α) (CB1 [3]; [3H]SR141716A as tracer, membranes of HEK293 cells expressing CB1): 0.11
- effect on [3H]SR141716A binding (CB1 [3]): substantial decrease
- cooperativity factor (α) (CB1 [4]): 17.6
- inhibition of CP55,940-induced [35S]GTPγS binding (CB1 wild-type receptor; 3.2 µM ICAM-b): complete inhibition
- [35S]GTPγS binding level (CB1 wild-type receptor; 3.2 µM ICAM-b, basal level 50.1 fmol/mg): 42.1 fmol/mg
- Emax of CP55,940-induced [35S]GTPγS binding (CB1 wild-type receptor; in the presence of 0.32 µM ICAM-b): 78.7 fmol/mg
- Emax of CP55,940-induced [35S]GTPγS binding (CB1 wild-type receptor; in the presence of 1 µM ICAM-b): 59.3 fmol/mg
- time of maximal ERK1/2 phosphorylation (CB1 [1]; HEK293 cells expressing CB1): 5 min
- transient ERK1/2 phosphorylation compared with CP55,940 alone (CB1 [1]; ICAM-b alone, control siRNA, HEK293 cells expressing CB1): larger increase
- effect of β-arrestin 2 siRNA on patterns of ERK1/2 phosphorylation (CB1 [1]; compared to control siRNA transfection): did not alter
